The values below come from ChEMBL document CHEMBL1201862, “PubChem BioAssay data set” (2004).

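96-well plates; 48 h exposure; 5 concentrations. Endpoints by linear interpolation between flanking doses. Not reached: highest tested concentration assigned. GI50: concentration for 50% inhibition of growth.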 Calls of active or inactive are those of the source. Rule as the data show it: active = GI50 up to about 1.1 µM and inactive = higher.

Test systems include HT-29; M14; HCC 2998; SNB-19; CCRF-CEM; NCI-H522; MDA-N; SN12C; SK-MEL-28; MDA-MB-435; SK-MEL-5; OVCAR-5; EKVX; A498; HOP-92; HL-60; IGROV-1; NCI-H226; T47D.
Assay in all cases: growth of human tumour cells (NCI), 48 h

Regarding `C=C(Cl)/C(=C\Cl)CCC(Br)C(C)C` (stereo not drawn), the GI50 is > 100 µM (inactive) with HT-29; 64.3 µM (inactive) in the assay on M14; > 100 µM (inactive) in the assay with HCC 2998; > 100 µM (inactive) in the assay with SNB-19; 44.5 µM (inactive) with CCRF-CEM; 21.1 µM (inactive) in the assay with NCI-H522. The GI50 with MDA-N was 41 µM (inactive); with SN12C, > 100 µM (inactive); in the assay on SK-MEL-28 it was 78.5 µM (inactive); with MDA-MB-435, 81.5 µM (inactive); in the assay on SK-MEL-5 it was > 100 µM (inactive); in the assay on OVCAR-5, > 100 µM (inactive). Also, the GI50 with EKVX was > 100 µM (inactive); with A498 it was > 100 µM (inactive); in the assay with HOP-92 it was > 100 µM (inactive); with HL-60, 63.5 µM (inactive); in the assay with IGROV-1 it was > 100 µM (inactive); in the assay with NCI-H226, > 100 µM (inactive).
Turning to `O=C1C(/C=C/c2ccc(Cl)cc2)=NNC2N1N=C1NC(=O)C3(NN12)c1ccccc1-c1ccccc13` (stereo not drawn), the GI50 with HT-29 was 66.2 µM (inactive); in the assay with M14, > 100 µM (inactive); in the assay with HCC 2998, > 100 µM (inactive); with SNB-19, > 100 µM (inactive); with CCRF-CEM, 65.6 µM (inactive); in the assay on NCI-H522, > 100 µM (inactive). The GI50 is > 100 µM (inactive) in the assay on SN12C; > 100 µM (inactive) in the assay on SK-MEL-28; 60.8 µM (inactive) in the assay with MDA-MB-435; > 100 µM (inactive) in the assay on SK-MEL-5; > 100 µM (inactive) in the assay on OVCAR-5; 38.5 µM (inactive) with EKVX. Besides, the GI50 in the assay on A498 is > 100 µM (inactive); in the assay with HOP-92 it was 41.9 µM (inactive); in the assay on HL-60, > 100 µM (inactive); in the assay with IGROV-1 it was > 100 µM (inactive); in the assay with NCI-H226 it was > 100 µM (inactive).
For `O=C(COc1ccc(OCC(=O)N2C(=O)CC(=O)N(c3ccccc3)C2=S)cc1)N1C(=O)CC(=O)N(c2ccccc2)C1=S`, the GI50 is 61.2 µM (inactive) in the assay on HT-29; 89.5 µM (inactive) in the assay with M14; 97.3 µM (inactive) in the assay with HCC 2998; 69.7 µM (inactive) in the assay on SNB-19; 38.1 µM (inactive) in the assay with NCI-H522; 68.7 µM (inactive) in the assay with MDA-N. The GI50 was > 100 µM (inactive) in the assay with SN12C; 87.3 µM (inactive) with SK-MEL-28; 76 µM (inactive) in the assay with MDA-MB-435; > 100 µM (inactive) with OVCAR-5; > 100 µM (inactive) in the assay on EKVX; 80.2 µM (inactive) with A498. Besides, the results for the GI50 with HOP-92, in the assay on IGROV-1 and in the assay on NCI-H226 were 52 µM (inactive), 38.7 µM (inactive) and 65.8 µM (inactive), respectively.
As to `C=CCc1cccc2cc(C(=O)Nc3nc(C45CC6CC(CC(C6)C4)C5)cs3)c(=O)oc12`, the GI50 in the assay on HT-29 was 49.8 µM (inactive); in the assay with HCC 2998, 33 µM (inactive); in the assay with SNB-19, 26.1 µM (inactive); in the assay with CCRF-CEM it was 64.3 µM (inactive); in the assay on NCI-H522, 49.7 µM (inactive); with MDA-N, 45 µM (inactive). Besides, the GI50 was 45.2 µM (inactive) with SN12C; 61.8 µM (inactive) in the assay on SK-MEL-28; 51.5 µM (inactive) in the assay with MDA-MB-435; 40.8 µM (inactive) with SK-MEL-5; > 100 µM (inactive) in the assay on OVCAR-5; 25.1 µM (inactive) in the assay on EKVX. Further, the GI50 in the assay on A498 is 25.2 µM (inactive); in the assay on HOP-92, 16 µM (inactive); in the assay with HL-60, 34 µM (inactive); with IGROV-1 it was 27.8 µM (inactive); in the assay with NCI-H226, 29.1 µM (inactive).
Consider `N#Cc1nc(-c2cnccn2)oc1N`, for which the GI50 in the assay on HT-29, with M14, with SNB-19, with CCRF-CEM, in the assay with MDA-N and in the assay on SN12C was > 100 µM (inactive) each time. For the same molecule, the GI50 in the assay on SK-MEL-28, in the assay with MDA-MB-435, in the assay with SK-MEL-5, with OVCAR-5, in the assay on EKVX and with A498 was > 100 µM (inactive) in each case. For the same molecule, the GI50 with HOP-92, with HL-60 and in the assay with IGROV-1 was > 100 µM (inactive) in each case.
`C=Cc1ccccc1C1(O)C=CC(OC)(OC)C=C1`: the GI50 in the assay on HT-29 was 3.57 µM (inactive); with M14 it was 5.96 µM (inactive); in the assay with HCC 2998 it was 18.5 µM (inactive); in the assay with SNB-19, 15.8 µM (inactive); with CCRF-CEM, 2.94 µM (inactive); in the assay with NCI-H522 it was 7.26 µM (inactive). For the same molecule, the GI50 is 8.24 µM (inactive) in the assay on SN12C; 6.89 µM (inactive) with SK-MEL-28; 4.36 µM (inactive) with MDA-MB-435; 22.2 µM (inactive) in the assay with T47D; 13.8 µM (inactive) with SK-MEL-5; 6.93 µM (inactive) in the assay with OVCAR-5. For the same molecule, the GI50 with EKVX was 14.7 µM (inactive); with A498 it was 23.2 µM (inactive); in the assay with HL-60, 3.4 µM (inactive); in the assay on IGROV-1, 13.4 µM (inactive); in the assay with NCI-H226, 30.5 µM (inactive).
`COCCN(C(=O)c1ccccc1)C1CCC2(SCCS2)c2[nH]c3ccccc3c21` (stereo not drawn): the GI50 was 49.4 µM (inactive) in the assay on HT-29; 51.4 µM (inactive) in the assay on HCC 2998; 89.5 µM (inactive) in the assay on SNB-19; 29.8 µM (inactive) in the assay on CCRF-CEM; 23.3 µM (inactive) in the assay on NCI-H522; 40.2 µM (inactive) in the assay on SN12C. Also, the GI50 is 74 µM (inactive) with SK-MEL-28; 20.4 µM (inactive) in the assay on MDA-MB-435; 22.9 µM (inactive) with SK-MEL-5; > 100 µM (inactive) with OVCAR-5; 30.3 µM (inactive) in the assay with EKVX; 45.7 µM (inactive) with A498. In addition, the GI50 with HOP-92 is 20.1 µM (inactive); in the assay on HL-60 it was 14.9 µM (inactive); with IGROV-1, 34.5 µM (inactive); in the assay with NCI-H226 it was > 100 µM (inactive).
`COc1ccc(-c2nc3ncccn3c2-c2ccc(SC)cc2)cc1`: the GI50 was 3.09 µM (inactive) in the assay on HT-29; 1.48 µM (inactive) in the assay on M14; 1.19 µM (inactive) in the assay on SNB-19; 2.28 µM (inactive) in the assay with CCRF-CEM; 0.23 µM (active) with NCI-H522; 0.237 µM (active) in the assay with MDA-N. For the same molecule, the GI50 with SN12C is 3.92 µM (inactive); with SK-MEL-28 it was 16.9 µM (inactive); with MDA-MB-435, 0.213 µM (active); with SK-MEL-5, 0.953 µM (active); in the assay on OVCAR-5 it was 2.42 µM (inactive); in the assay with HOP-92, 7.18 µM (inactive). In addition, the figures for the GI50 in the assay on HL-60 and in the assay on IGROV-1 were 1.73 µM (inactive) and 2.04 µM (inactive), respectively.
For `Cc1ccc(-c2cc(-c3ccco3)nc(N)n2)o1`, the GI50 in the assay on HT-29, with M14, in the assay with SNB-19, in the assay on CCRF-CEM, with NCI-H522 and in the assay on SN12C was > 100 µM (inactive) each time. In addition, the GI50 in the assay with SK-MEL-28 is > 100 µM (inactive); with SK-MEL-5 it was > 100 µM (inactive); in the assay with OVCAR-5, > 100 µM (inactive); in the assay with EKVX it was 65.2 µM (inactive); in the assay with HL-60, > 100 µM (inactive); with IGROV-1 it was > 100 µM (inactive). The GI50 in the assay on NCI-H226 was > 100 µM (inactive).
As for `CC(C)C1OC(=O)/C=C/C=C/C=C/C=C/C=C/CC(O)CC(O)CC(O)CC(O)CC(O)CC(O)CC(O)CC(O)/C=C/C1C` (stereo not drawn), the GI50 in the assay on HT-29, in the assay on M14, in the assay on HCC 2998, in the assay on SNB-19, in the assay with CCRF-CEM and with MDA-N was > 100 µM (inactive) throughout. The GI50 in the assay on SN12C, with SK-MEL-28, in the assay on MDA-MB-435, in the assay with SK-MEL-5, in the assay with OVCAR-5 and with EKVX was > 100 µM (inactive) in each case. Moreover, the GI50 with A498, in the assay on HOP-92, with HL-60, in the assay with IGROV-1 and in the assay with NCI-H226 was > 100 µM (inactive) each time.
Take `NNC(=O)c1c(-c2cccnc2)cnc2ccccc12`: the GI50 in the assay on HT-29, in the assay with M14, with HCC 2998, in the assay with SNB-19, in the assay with CCRF-CEM and in the assay with NCI-H522 was > 100 µM (inactive) each time. In addition, the GI50 with MDA-N, with SN12C, in the assay with SK-MEL-28, in the assay on SK-MEL-5, with OVCAR-5 and in the assay with EKVX was > 100 µM (inactive) throughout. The GI50 in the assay with HOP-92, with HL-60, with IGROV-1 and with NCI-H226 was > 100 µM (inactive) throughout.
For `COC(=O)C(N)CCCC(N)C(=O)NC(C)C(=O)NC(CCC(=O)NCCCNc1ccc([N+](=O)[O-])c2[nH]c3ccccc3c(=O)c12)C(N)=O` (stereo not drawn), the GI50 is 5.4 µM (inactive) in the assay with M14; 6.82 µM (inactive) in the assay on HCC 2998; 4 µM (inactive) in the assay with SNB-19; 3.9 µM (inactive) with CCRF-CEM; 10.2 µM (inactive) in the assay with SK-MEL-28; 5.01 µM (inactive) in the assay on MDA-MB-435. In addition, the GI50 in the assay with T47D was 11.6 µM (inactive); in the assay with SK-MEL-5, 11.7 µM (inactive); in the assay with OVCAR-5, 10.4 µM (inactive); in the assay with EKVX, 7.78 µM (inactive); with A498, 15.1 µM (inactive); in the assay on HOP-92, 11.4 µM (inactive). In the assay on NCI-H226, the GI50 is 9.55 µM (inactive).
